In patent publication US20130150434A1 (SOMAXON PHARMACEUTICALS, INC., priority 2006, published 2013):

Columns and labels:
[1] = system: chronic primary insomnia patients with sleep maintenance difficulties; assay: Phase III study of doxepin, subjective assessments by morning questionnaire (sWASO, LSO, sTST); details: ITT; for sWASO (subjective wake after sleep onset), Mean (SD): Baseline (mean of Days −5 and −4)
Description: (§1) Patients with at least a 3-month history of primary insomnia, according to Diagnostic and Statistical Manual of Mental Disorders, Fourth Edition Text Revision (DSM-IV-TR)-defined primary insomnia were enrolled.
(§2) After the PSG Screening and Baseline periods, patients began a 35-day double-blind treatment period during which they were given study drug supplies at each scheduled visit (Visits 4, 5, and 6). The scheduled study visits consisted of two consecutive nights of 8-hour PSG recording in the sleep center and next day assessments to assess sedative efficacy. Patients were asked to complete hangover/residual effects assessments, morning and evening questionnaires, and the Benzodiazepine Withdrawal Symptom Questionnaire (BWSQ) at each of these visits.
Subjective Variables: Subjective assessments included data obtained on Days 2, 16, and 30, and included subjective TST (sTST), subjective WASO (sWASO), latency to sleep onset (LSO), subjective NAASO (sNAASO), and sleep quality (all assessed by a morning questionnaire), daytime functioning (assessed by an evening questionnaire), average nightly sTST during at-home administration (5 days before the PSG visit), CGI rating scale for Severity and Therapeutic Effect completed by the clinician and patient, and a measure of insomnia severity (assessed by ISI).
(§3) Methods used to analyze other endpoints were the same as those used to analyze WASO. For LPS, latency to REM sleep, latency to Stage 2 sleep, and LSO, data were expected to be log-normally distributed and were analyzed using log-transformed values (base 10). The safety data were analyzed primarily using descriptive statistical methods.
(§4) All efficacy analyses were performed on the Intent-to-treat (ITT) analysis set. […] Data were analyzed as randomized and based on observed cases.

[2] = Phase III study of doxepin, safety assessments (body weight, residual effects, withdrawal symptoms, laboratory tests, ECG); assay type: in vivo, human
Description: Safety assessments including adverse events (AEs), vitals, and neurological assessments were performed throughout the study period. Other safety assessments, including clinical laboratory tests, electrocardiograms (ECGs), and physical examinations (PEs) were performed before and after the study treatment period. For early termination, all safety assessments, including AEs neurological assessments, clinical laboratory tests, ECGs, vitals, and PEs were performed.
Safety: Safety was assessed based on AEs, clinical laboratory tests (hematology, serum chemistry, and urinalysis), vital signs, physical examinations, neurological assessments, 12-lead ECGs, and ratings of hangover/residual effects (digit-symbol substitution test (DSST), symbol copying test (SCT), and the visual analog scale (VAS) for sleepiness), assessment of rebound insomnia using PSG recordings during the discontinuation period, and withdrawal symptoms using the benzodiazepine withdrawal symptom questionnaire (BWSQ).
Safety analyses included all randomized patients who received at least one dose of double-blind study medication. Treatment assignment for safety data was based on the treatment actually received.

[3] = system: chronic primary insomnia patients with sleep maintenance difficulties; assay: Phase III study of doxepin, 8-hour PSG efficacy variables (WASO, TST, SE, LPS); details: for 8-hour WASO, Mean (SD) / LPS (latency to persistent sleep, PSG), Mean (SD) / SE - Hour 8 (PSG), Mean (SD) / TST (8-hour PSG), Mean (SD) / LPS (PSG), Mean (SD) / SE (8-hour PSG), Mean (SD): ITT
Description: as §1
Patients were screened (Visit 1) to determine study eligibility and asked to discontinue any protocol-disallowed prescription or over-the-counter (OTC) medications used as sleep medication. At the beginning of the first week (polysomnography [PSG] Screening, Visit 2), eligible patients began two weeks of single-blind placebo dosing and had two consecutive nights of 8-hour PSG recording in the sleep center. Patients were required to meet the PSG screening criteria to remain eligible for the study. Patients were allowed to leave the sleep center during the day after the PSG Screening nights and continued to take single-blind placebo after PSG Screening (Visit 2) for five consecutive nights at home.
Patients were allowed to leave the sleep center during the day after the PSG nights and continued taking single-blind placebo for five consecutive nights at home.
as §2
Primary Efficacy: The primary efficacy variable was wake after sleep onset (WASO) obtained on Night 1 as determined by PSG recordings using the ITT analysis set.
Additional PSG efficacy variables: Additional efficacy variables obtained on the first PSG assessment nights (Nights 1 and 29) included WASO (Night 29), wake time during sleep (WTDS), total sleep time (TST), sleep efficiency (SE), including whole night, third of the night, and by hour, and latency to persistent sleep (LPS), latency to Stage 2 sleep, number of awakenings after sleep onset (NAASO), total wake time (TWT), wake time after sleep (WTAS), and, sleep architecture including percentage and minutes of Stage 1, 2, and 3/4 non-rapid eye movement (NREM) sleep, percentage and minutes of rapid eye movement (REM) sleep, and latency to REM sleep.
as §3, §4

[4] = doxepin 3 mg, Night 1, p<0.0001 vs placebo
[5] = doxepin 3 mg, Night 15, p 0.1977 vs placebo
[6] = doxepin 3 mg, Night 29, p 0.0262 vs placebo
[7] = doxepin 6 mg, Night 1, p<0.0001 vs placebo
[8] = doxepin 6 mg, Night 15, p 0.0157 vs placebo
[9] = doxepin 6 mg, Night 29, p 0.0003 vs placebo

CN(C)CCC=C1c2ccccc2COc2ccccc21 [Doxepin, 11-(3-dimethylaminopropylidene)-6,11-dihydrodibenzo (b,e)oxepin]
sTST, Mean (SD) ([1]; Doxepin HCl 6 mg, Visit 6, Day 30, p 0.6831 vs placebo): 373.0 (75.30) minutes
LSO, Mean (SD) ([1]; Doxepin HCl 6 mg, Visit 6, Day 30, p 0.8242 vs placebo): 48.3 (47.40) minutes
sWASO (subjective wake after sleep onset), Mean (SD) ([1]; doxepin 3 mg group): 80.6 (48.12) minutes
sWASO, Mean (SD) ([1]; doxepin 3 mg, Visit 4, Day 2, p 0.0005 vs placebo): 55.7 (39.81) minutes
sWASO, Mean (SD) ([1]; doxepin 3 mg, Visit 5, Day 16, p 0.2582 vs placebo): 59.0 (54.14) minutes
sWASO, Mean (SD) ([1]; doxepin 3 mg, Visit 6, Day 30, p 0.8958 vs placebo): 63.1 (47.24) minutes
sWASO (subjective wake after sleep onset), Mean (SD) ([1]; doxepin 6 mg group): 78.2 (43.06) minutes
sWASO, Mean (SD) ([1]; doxepin 6 mg, Visit 4, Day 2, p 0.0007 vs placebo): 54.9 (44.76) minutes
sWASO, Mean (SD) ([1]; doxepin 6 mg, Visit 5, Day 16, p 0.3357 vs placebo): 58.4 (49.09) minutes
sWASO, Mean (SD) ([1]; doxepin 6 mg, Visit 6, Day 30, p 0.8020 vs placebo): 58.2 (53.07) minutes
Changes in other clinical laboratory tests, vital sign measurements, physical examinations, neurological assessments, or ECG parameters ([2]; 3 mg and 6 mg): no clinically relevant changes
Next day residual effects ([2]; 3 mg and 6 mg): no significant next day residual effects
Withdrawal effects ([2]; 3 mg and 6 mg, abrupt discontinuation): no withdrawal effects
Body Weight, Change from Screening, mean (±SD) ([2]; Doxepin HCl 3 mg): 0.3 (2.21) kg
Body Weight, Change from Screening, mean (±SD) ([2]; Doxepin HCl 6 mg): 0.0 (2.19) kg
Sedative tolerance (sleep maintenance variables across study visits, PSG) ([3]; 3 mg and 6 mg, 35-day double-blind treatment): no evidence of sedative tolerance
8-hour WASO, Mean (SD) ([3]; doxepin 3 mg group, Baseline (single-blind placebo)): 67.8 (33.56) minutes
LPS (latency to persistent sleep, PSG), Mean (SD) ([3]; doxepin 3 mg group, Baseline): 35.9 (29.84) minutes
SE - Hour 8 (PSG), Mean (SD) ([3]; doxepin 3 mg group, Baseline): 74.9 (22.87) %
TST (8-hour PSG), Mean (SD) ([3]; doxepin 3 mg group, Baseline): 380.3 (46.09) minutes
8-hour WASO, Mean (SD) ([3]; doxepin 3 mg, Night 1 (primary), p<0.0001 vs placebo): 41.4 (31.51) minutes
LPS (PSG), Mean (SD) ([3]; doxepin 3 mg, Night 1, p 0.0110 vs placebo): 26.7 (23.42) minutes
SE (8-hour PSG), Mean (SD) [3, 4]: 86.5 (8.68) %
SE - Hour 8 (PSG), Mean (SD) [3, 4]: 87.8 (14.28) %
TST (8-hour PSG), Mean (SD) [3, 4]: 415.3 (41.65) minutes
8-hour WASO, Mean (SD) ([3]; doxepin 3 mg, Night 15, p 0.0053 vs placebo): 44.8 (27.26) minutes
SE (8-hour PSG), Mean (SD) [3, 5]: 83.7 (10.12) %
TST (8-hour PSG), Mean (SD) [3, 5]: 401.7 (48.56) minutes
LPS (PSG), Mean (SD) ([3]; doxepin 3 mg, Night 15, p 0.3644 vs placebo): 38.2 (40.52) minutes
SE (8-hour PSG), Mean (SD) [3, 6]: 85.0 (10.92) %
TST (8-hour PSG), Mean (SD) [3, 6]: 408.1 (52.41) minutes
8-hour WASO, Mean (SD) ([3]; doxepin 3 mg, Night 29, p 0.0299 vs placebo): 47.3 (43.53) minutes
SE - Hour 8 (PSG), Mean (SD) ([3]; doxepin 3 mg, Night 29, p 0.0524 vs placebo): 81.9 (20.81) %
LPS (PSG), Mean (SD) ([3]; doxepin 3 mg, Night 29, p 0.9008 vs placebo): 28.0 (25.99) minutes
8-hour WASO, Mean (SD) ([3]; doxepin 6 mg group, Baseline (single-blind placebo)): 65.0 (33.23) minutes
LPS (latency to persistent sleep, PSG), Mean (SD) ([3]; doxepin 6 mg group, Baseline): 39.1 (34.10) minutes
SE - Hour 8 (PSG), Mean (SD) ([3]; doxepin 6 mg group, Baseline): 76.4 (21.26) %
TST (8-hour PSG), Mean (SD) ([3]; doxepin 6 mg group, Baseline): 380.3 (43.09) minutes
8-hour WASO, Mean (SD) ([3]; doxepin 6 mg, Night 1 (primary), p<0.0001 vs placebo): 36.3 (26.14) minutes
SE (8-hour PSG), Mean (SD) [3, 7]: 87.6 (7.72) %
SE - Hour 8 (PSG), Mean (SD) [3, 7]: 88.4 (14.25) %
TST (8-hour PSG), Mean (SD) [3, 7]: 420.5 (37.07) minutes
8-hour WASO, Mean (SD) ([3]; doxepin 6 mg, Night 15, p 0.0023 vs placebo): 41.9 (29.67) minutes
SE (8-hour PSG), Mean (SD) [3, 8]: 85.7 (10.70) %
TST (8-hour PSG), Mean (SD) [3, 8]: 411.3 (51.34) minutes
LPS (PSG), Mean (SD) ([3]; doxepin 6 mg, Night 15, p 0.8315 vs placebo): 31.8 (36.57) minutes
SE (8-hour PSG), Mean (SD) [3, 9]: 87.3 (9.37) %
TST (8-hour PSG), Mean (SD) [3, 9]: 419.1 (44.98) minutes
8-hour WASO, Mean (SD) ([3]; doxepin 6 mg, Night 29, p 0.0012 vs placebo): 41.2 (37.91) minutes
SE - Hour 8 (PSG), Mean (SD) ([3]; doxepin 6 mg, Night 29, p 0.0034 vs placebo): 85.8 (19.66) %
LPS (PSG), Mean (SD) ([3]; doxepin 6 mg, Night 29, p 0.9989 vs placebo): 24.7 (21.48) minutes
